{"source": "patent US20220169643A1", "about": "“ESTROGEN RECEPTOR DEGRADING PROTACS” (AstraZeneca AB, priority 2019, published 2022)", "molecular_target": "T1, Estrogen Receptor Alpha Ligand binding domain (ER alpha-LBD (GST)) (Homo sapiens, UniProt P03372)", "T1 construct": "made in house", "T1 sequence (P03372 307-554)": "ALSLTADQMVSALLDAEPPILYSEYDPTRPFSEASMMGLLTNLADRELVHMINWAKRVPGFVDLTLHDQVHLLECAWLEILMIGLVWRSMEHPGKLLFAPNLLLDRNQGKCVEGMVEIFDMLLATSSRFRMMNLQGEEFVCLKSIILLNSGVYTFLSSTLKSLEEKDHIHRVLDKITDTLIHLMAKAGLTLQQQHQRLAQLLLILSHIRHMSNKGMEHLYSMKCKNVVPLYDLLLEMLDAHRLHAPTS", "experiment": "ERα Binding Assay (LanthaScreen TR-FRET competition)", "details": "competitive displacement of Fluormone ES2 tracer from recombinant human ER alpha-LBD (residues 307-554), 4 hours at room temperature", "description": "The ability of compounds to bind to isolated Estrogen Receptor Alpha Ligand binding domain (ER alpha-LBD (GST)) was assessed in competition assays using a LanthaScreen™ Time-Resolved Fluorescence Resonance Energy Transfer (TR-FRET) detection end-point. For the LanthaScreen TR-FRET endpoint, a suitable fluorophore (Fluormone ES2, ThermoFisher, Product code P2645) and recombinant human Estrogen Receptor alpha ligand binding domain, residues 307-554 (expressed and purified in-house) were used to measure compound binding. The assay principle is that ER alpha-LBD (GST) is added to a fluorescent ligand to form a receptor/fluorophore complex. A terbium-labelled anti-GST antibody (Product code PV3551) is used to indirectly label the receptor by binding to its GST tag, and competitive binding is detected by a test compound's ability to displace the fluorescent ligand, resulting in a loss of TR-FRET signal between the Th-anti-GST antibody and the tracer. The assay was performed as follows with all reagent additions carried out using the Beckman Coulter BioRAPTR FRD microfluidic workstation: • 1. Acoustic dispense 120 nL of the test compound into a black low volume 384 well assay plates. • 2. Prepare 1×ER alpha-LBD/Tb-anti-GST Ab in ES2 screening buffer and incubate for 15 minutes. • 3. Dispense 6 μL of the 1×[…]/Th-anti-GST Ab reagent into each well of the assay plate followed by 6 μL of Fluorophore reagent into each well of the assay plate • 4. Cover the assay plate to protect the reagents from light and evaporation, and incubate at room temperature for 4 hours. • 5. Excite at 337 nm and measure the fluorescent emission signal of each well at 490 nm and 520 nm using the BMG PheraSTAR.\nCompounds were dosed directly from a compound source microplate containing serially diluted compound (4 wells containing 10 mM, […] and 10 nM final compound respectively) to an assay microplate using the Labcyte Echo 550. The Echo 550 is a liquid handler that uses acoustic technology to perform direct microplate-to-microplate transfers of DMSO compound solutions and the system can be programmed to transfer multiple small nL volumes of compound from the different source plate wells to give the desired serial dilution of compound in the assay which is then back-filled to normalise the DMSO concentration across the dilution range.\nIn total 120 nL of compound plus DMSO were added to each well and compounds were tested in a 12-point concentration response format over a final compound concentration range of 10, 2.917, 1.042, 0.2083, 0.1, 0.0292, 0.0104, 0.002083, 0.001, 0.0002917, 0.0001042, and 0.00001 μM respectively. TR-FRET dose response data obtained with each compound was exported into a suitable software package (such as Origin or Genedata) to perform curve fitting analysis. Competitive ER alpha binding was expressed as an IC50 value. This was determined by calculation of the concentration of compound that was required to give a 50% reduction in tracer compound binding to ER alpha-LBD.", "data": [{"molecule": "C[C@@H]1Cc2c([nH]c3ccccc23)[C@@H](c2cnc(N3CCC4(CCN(CC5CCN(c6ccc7c(c6)CN(C6CCC(=O)NC6=O)C7=O)CC5)CCO4)CC3)nc2)N1CC(C)(C)F", "note": "(stereo partly drawn) [Example 18, 3-(5-{4-[(3-{5-[(1R,3R)-2-(2-fluoro-2-methylpropyl)-3-methyl-2,3,4,9-tetrahydro-1H-beta-carbolin-1-yl]pyrimidin-2-yl}-7-oxa-3,10-diazaspiro[5.6]dodecan-10-yl)methyl]piperidin-1-yl}-1-oxo-1,3-dihydro-2H-isoindol-2-yl)piperidine-2,6-dione]", "values": [{"measurement": "IC50", "value": 9.5, "unit": "nM"}]}, {"molecule": "C[C@@H]1Cc2c([nH]c3ccccc23)[C@@H](c2cnc(N3CCC(CN4CCN(c5ccc6c(c5)C(=O)N(C5CCC(=O)NC5=O)C6=O)CC4)CC3)nc2)N1CC(C)(C)F", "note": "(stereo partly drawn) [Example 3, 2-[2,6-Dioxo3-piperidyl]-5-[4-[[1-[5-[(1R,3R)-2-(2-fluoro-2-methyl-propyl)-3-methyl-1,3,4,9-tetrahydropyrido[3,4-b]indol-1-yl]pyrimidin-2-yl]-4-piperidyl]methyl]piperazin-1-yl]isoindoline-1,3-dione]", "values": [{"measurement": "IC50", "value": 3.7, "unit": "nM"}]}]}
